Results as given in PMC6522510 (Nature Communications, 2019).

Experiments:
Parameters in all cases: species or system AML cell lines (8); Primary HTS, single concentration about 10 uM, Cell Titer Glo viability; log10 luminescence, per cent inhibition relative to cycloheximide control
Conditions in all cases: 72 h, relative to cycloheximide control, log10 luminescence; inhibitor
[1] = test system: U937
[2] = test system: ML-2
[3] = test system: M07e
[4] = test system: CMS
[5] = test system: CMK
[6] = test system: MV4-11
[7] = test system: CHRF288-11
[8] = test system: MOLM-13

| Structure (SMILES) | U937 %inh [1] [%] | ML-2 %inh [2] [%] | M07e %inh [3] [%] | CMS %inh [4] [%] | CMK %inh [5] [%] | MV4-11 %inh [6] [%] | CHRF288-11 %inh [7] [%] | MOLM-13 %inh [8] [%] |
| --- | --- | --- | --- | --- | --- | --- | --- | --- |
| O=c1[nH]c2nc(NC3CCOCC3)ncc2cc1Oc1ccc(F)cc1F [SJ000581091-1] | 1.694 | -1.12 | 7.401 | 4.57 | -0.7252 | 0.8036 | 2.671 | -2.415 |
| COc1cccc(C2=C(c3cn(C)c4cccc(OC)c34)C(=O)NC2=O)c1 [SJ000581093-1] | 7.981 | 1.141 | 15.31 | 2.878 | 64.38 | 0.2916 | 15.23 | 14.52 |
| Cn1c(=O)c(Sc2ccccc2F)cc2cnc(NC3CCOCC3)nc21 [SJ000581094-1] | -2.114 | -0.9832 | 79.34 | -0.09142 | -1.429 | 1.745 | 5.078 | -2.304 |
| Cn1cc(C2=C(c3cn(C)c4c([N+](=O)[O-])cccc34)C(=O)NC2=O)c2ccccc21 [SJ000581096-1] | -1.424 | -1.675 | 3.87 | -0.5679 | 1.442 | 1.039 | -0.1815 | -1.995 |
| Cn1cc(C2=C(c3cccnc3)C(=O)NC2=O)c2ccccc21 [SJ000581097-1] | -1.738 | 3.521 | 1.519 | 3.929 | 8.732 | 3.908 | 42.59 | 6.704 |
| Cn1cc(C2=C(c3cn(C)c4ccc(Cl)cc34)C(=O)NC2=O)c2ccccc21 [SJ000581098-1] | 4.952 | 3.034 | 13.21 | 0.498 | 47.95 | 5.255 | 10.98 | 13.33 |
| Cn1cc(C2=C(c3cn(C)c4ncccc34)C(=O)NC2=O)c2ccccc21 [SJ000581101-1] | 8.822 | 0.3677 | 5.727 | 2.698 | 41.81 | 0.9422 | 23.35 | 47.28 |
| Nc1c(C(=O)c2cccc(OCCN3CCOCC3)c2)cnn1-c1ccc(F)cc1 [SJ000581103-1] | 7.007 | 2.31 | 6.806 | -1.582 | 0.9343 | 1.093 | -1.374 | -0.4893 |
| Nc1c(C(=O)c2cccc(CCS(N)(=O)=O)c2)cnn1-c1ccc(F)cc1 [SJ000581104-1] | 0.2995 | 1.884 | 6.935 | 3.265 | 1.701 | 1.774 | -1.775 | -0.2243 |
| Nc1[nH]nc2nc(-c3cccs3)cc(C(F)(F)F)c12 [SJ000581105-1] | 0.05414 | 1.699 | 8.033 | 2.722 | -1.06 | 7.712 | -1.43 | 17.65 |
| COc1ccccc1CCN=C1NC(=O)/C(=C/c2ccc3ncccc3c2)S1 [SJ000581106-1] | 6.939 | 10.31 | 24.66 | 4.605 | 41.08 | 10.91 | 4.589 | 8.02 |
| Cn1cc(C2=C(Sc3ccccc3)C(=O)NC2=O)c2ccccc21 [SJ000581108-1] | 7.938 | 5.065 | 13.92 | 5.691 | 17.14 | 3.129 | 15.38 | 79.89 |
| Cn1cc(C2=C(c3ccc4ccccc4c3)C(=O)NC2=O)c2ccccc21 [SJ000581109-1] | 4.798 | 4.34 | 12.46 | 2.57 | 22.8 | 1.463 | 15.54 | 1.67 |
| Nc1c(C(=O)c2cccc(C(O)CO)c2)cnn1-c1ccc(F)cc1 (stereo not drawn) [SJ000581110-1] | -0.488 | 2.206 | 7.822 | 3.504 | -1.427 | 3.101 | 9.958 | 27.67 |
| CC(=O)Nc1ccc2c(C3=C(c4cn(C)c5ccccc45)C(=O)NC3=O)cn(C)c2c1 [SJ000581111-1] | 75.9 | 39.48 | 89.33 | 99.23 | 104.7 | 74.04 | 123.6 | 95.13 |
| CCNC(=O)[C@@H]1CCCN2C(=O)CC[C@H](NC(=O)[C@H](Cc3ccc(OP(=O)(O)O)cc3)NC(C)=O)C(=O)N12 [SJ000581112-1] | 0.08443 | 2.455 | 4.13 | -0.07964 | 0.5327 | 1.373 | -7.883 | 0.008932 |
| Cn1cc(C2=C(c3ccsc3)C(=O)NC2=O)c2ccccc21 [SJ000581113-1] | 0.5485 | 4.351 | 3.37 | 3.6 | 4.136 | 4.067 | 8.413 | 31.75 |
| CS(=O)(=O)N1CCC(Nc2ncc(C(=O)c3c(F)cccc3F)c(N)n2)CC1 [SJ000581114-1] | 3.392 | 1.661 | 7.028 | 2.662 | 18.19 | 0.7328 | 0.1318 | 68.54 |
| COc1cc[nH]c1/C=C1\C(=O)Nc2ccc(F)c(I)c21 [SJ000581115-1] | 3.766 | 0.5185 | 4.603 | 4.321 | -0.2359 | 2.865 | -1.945 | 8.55 |
| CC(C)(O)Cn1c(=O)c(Oc2ccc(F)cc2F)cc2cnc(NC3CCOCC3)nc21 [SJ000581116-1] | 1.398 | 0.2616 | 10.58 | -1.939 | 6.636 | 2.584 | -0.4946 | 1.601 |
| Cn1c(-c2ccncc2)c(-c2ccc(F)cc2)c2ncccc21 [SJ000581117-1] | 0.6927 | -0.3566 | 6.194 | 0.8281 | 3.59 | 3.37 | 26.1 | 0.427 |
| CS(=O)(=O)CCc1cccc(C(=O)c2cnn(-c3ccc(F)cc3)c2N)c1 [SJ000581118-1] | 3.157 | 0.2726 | 5.628 | 3.108 | 3.205 | 2.402 | -6.13 | 3.918 |
| Cn1cc(C2=C(c3ccccc3[N+](=O)[O-])C(=O)NC2=O)c2ccccc21 [SJ000581119-1] | 6.728 | 6.35 | 28.37 | 101.9 | 89.69 | 44.46 | 24.65 | 15.35 |
| CCOc1ccccc1CCN=C1NC(=O)/C(=C/c2ccc3ncccc3c2)S1 [SJ000581120-1] | 6.277 | 18.56 | 13.3 | 5.975 | 13.66 | 0.5335 | -1.679 | 1.703 |
